From ChEMBL document CHEMBL1201862, “PubChem BioAssay data set” (2004) come the findings set out here.

Structures are written as SMILES.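 Exposure lasted 48 hours, with cells grown in 96-well plates and compounds tested at five concentrations. Abbreviation: GI50, concentration required for 50% inhibition of growth.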 Calls of active or inactive are those of the source. Cut-off read from the data, not from the text of the source: active = GI50 up to about 1.1 µM and inactive = higher.

Test systems include SR; MDA-N; 786-0; LXFL 529; XF498; DMS-273; KM-20L2; HOP-18; RXF 631.
Assay in all cases: NCI anticancer screen, dose series, 48 h

Take `CC(=O)Nc1ccc(/C=C/C(=O)N2CC(CCl)c3c2cc(N)c2ccccc32)cc1` (centres undefined): the figures for the GI50 in the assay on SR, in the assay on MDA-N and with 786-0 were < 0.005 µM (active), 0.00553 µM (active) and < 0.005 µM (active), respectively.

In the case of `C/C(=C\c1ccc(Cl)cc1)C(C)(C)C(=O)O`, the GI50 is 3.75 µM (inactive) with SR, > 100 µM (inactive) in the assay with MDA-N and > 100 µM (inactive) in the assay on 786-0.

For `CCCCCCCCC[C@@H]1C[C@H](O)[C@H](Cc2ccccc2)N1C(=O)OC(C)(C)C`, the GI50 is 17.2 µM (inactive) with LXFL 529; 18.2 µM (inactive) with SR; 22.2 µM (inactive) in the assay with XF498; 18.1 µM (inactive) in the assay with DMS-273; 17.1 µM (inactive) in the assay on KM-20L2.

For `CN1C[C@H]2[C@@H](C1=O)[C@H](c1ccccc1)ON2C`, the GI50 in the assay on SR and with MDA-N was > 100 µM (inactive) throughout.

Regarding `CN(CCO)CCC1COc2ccccc2O1` (centres undefined), the GI50 in the assay with SR and with MDA-N was > 10 µM (inactive) each time.

For the compound `O=C(Nc1ccc(C2=NCCN2)cc1)c1cncc(C(=O)Nc2ccc(C3=NCCN3)cc2)c1`, the GI50 in the assay with XF498, with HOP-18, with DMS-273 and in the assay with KM-20L2 was > 100 µM (inactive) in each case.

Turning to `CCCCCCCC/C=C\CCCCCCCCNc1ccn(C2OC(COP(=O)(O)OC3CC(n4cc(F)c(=O)[nH]c4=O)OC3CO)C(O)C2O)c(=O)n1` (centres undefined), the GI50 in the assay on SR is 0.0159 µM (active); with MDA-N, > 55.1 µM (inactive); with 786-0 it was 0.195 µM (active).

In the case of `O=C1CSC(c2ccccc2)N1c1ccc(-c2ccc(-n3c(-c4ccccc4)nc4ccccc4c3=O)cc2)cc1` (centres undefined), the GI50 in the assay with SR was 19.5 µM (inactive); in the assay with MDA-N, 64.9 µM (inactive); in the assay with 786-0, 55 µM (inactive).

Consider `Cc1nnc2sc(N/N=C/c3ccccc3)nn12`, for which the GI50 in the assay on MDA-N and with 786-0 was > 100 µM (inactive) throughout.

Consider `N=C(N)N/N=C\c1c(-c2cccc([N+](=O)[O-])c2)nc2sccn12`, for which, in the assay on 786-0, the GI50 is 3.89 µM (inactive).

With `N#C/C(=C\c1ccc(Br)cc1)c1nc(-c2cc3ccccc3oc2=O)cs1`, the GI50 in the assay with SR was 34 µM (inactive); in the assay with MDA-N it was 17.7 µM (inactive); in the assay on 786-0, 17 µM (inactive).

Turning to `CCOc1cc(C2CC(c3ccc(NS(=O)(=O)c4cc([N+](=O)[O-])ccc4C)cc3)=NN2S(=O)(=O)c2cc([N+](=O)[O-])ccc2C)ccc1O` (centres undefined), the GI50 in the assay with SR is 32.4 µM (inactive); in the assay on MDA-N it was 43.3 µM (inactive); with 786-0, 33.3 µM (inactive).

As for `CC1=C2C(=C[C@H]3[C@]4(C)CCCC(C)(C)[C@H]4CC[C@]34O[C@H]24)OC1=O`, the GI50 with MDA-N and in the assay with 786-0 was > 100 µM (inactive) in each case.

`CC(C)CCC1CC2C(=O)N(c3ccccc3)C(=O)C2c2[nH]c3ccccc3c21` (centres undefined): the GI50 was 1.26 µM (inactive) in the assay on RXF 631; 6.05 µM (inactive) in the assay with LXFL 529; 3.4 µM (inactive) with SR; 2.88 µM (inactive) with 786-0; 0.206 µM (active) with XF498; 7.06 µM (inactive) in the assay on HOP-18. Also, the GI50 with DMS-273 is 0.281 µM (active).

Consider `N#CSCC1COc2ccccc2O1` (centres undefined), for which the GI50 is 2.58 µM (inactive) with SR and > 10 µM (inactive) with MDA-N.

As for `CC1(C)CC(=O)c2c(nc3ccc4ccccc4c3c2-c2ccc(NC(=O)CCC(=O)Nc3ccc(-c4c5c(nc6ccc7ccccc7c46)CC(C)(C)CC5=O)cc3)cc2)C1`, the GI50 with SR, in the assay with MDA-N and in the assay on 786-0 was > 100 µM (inactive) in each case.

Take `CCC1CN2CCC1CC2` (centres undefined): the GI50 in the assay on XF498, in the assay on HOP-18, in the assay with DMS-273 and in the assay with KM-20L2 was > 100 µM (inactive) throughout.

Turning to `O=C1C2C(C(=O)N1OS(=O)(=O)c1ccccc1)N(Cc1ccccc1)C(=O)N2Cc1ccccc1` (centres undefined), the GI50 in the assay with RXF 631, with LXFL 529, with SR, in the assay on 786-0, with XF498 and in the assay on KM-20L2 was > 100 µM (inactive) each time.

Consider `CCCC(=O)OC[n+]1ccc2c(C)c3[nH]c4ccc(OC)cc4c3c(C)c2c1`, for which the GI50 with LXFL 529 is 0.498 µM (active); with SR, 0.0486 µM (active); in the assay with 786-0, 0.0953 µM (active); with DMS-273, 0.0586 µM (active); in the assay on KM-20L2, 0.226 µM (active).

As for `CCOP(=O)(OCC)/C(C#N)=C/c1cccn1Cc1ccccc1`, the GI50 with SR is 31.3 µM (inactive); in the assay on MDA-N, 29.9 µM (inactive); in the assay with 786-0 it was 26.1 µM (inactive).

In the case of `CC(=O)N(CCN1C(=O)c2ccccc2C1=O)CCN1C(=O)c2ccccc2C1=O`, the GI50 with LXFL 529, with SR, in the assay on 786-0, with XF498, in the assay with DMS-273 and with KM-20L2 was > 100 µM (inactive) throughout.

For the compound `COc1c(Cl)cc(S(=O)O)cc1Cl`, the GI50 in the assay with LXFL 529 and in the assay with XF498 was > 100 µM (inactive) throughout.

With `CC(NNC(=O)c1cc[n+]([BH2-]C#N)cc1)c1ccc(F)cc1` (centres undefined), the GI50 in the assay on SR, in the assay on MDA-N and in the assay with 786-0 was > 100 µM (inactive) throughout.

With `COc1cc(C2c3[nH]c4ccccc4c3[C@@H](Nc3ccc(F)cc3)[C@H]3COC(=O)N23)cc(OC)c1O` (some centres undefined), the GI50 in the assay on MDA-N is 2.3 µM (inactive).

With `C[C@H]1[C@@H]2C[C@@H]3O[C@@]34[C@H]3CCC5Cc6nc7c(nc6C[C@@]5(C)[C@]3(O)CC(=O)[C@@]24CO[C@]12OC(C)(C)C[C@@H]2O)CC1CC[C@@H]2C3=C[C@H]4O[C@@]5(OC(C)(CO)C[C@@H]5O)[C@H](C)[C@@]4(O)[C@]3(C)[C@@H](O)CC2[C@]1(C)C7` (some centres undefined), the GI50 was 0.00769 µM (active) with XF498, > 3.52 µM (inactive) with HOP-18, 0.00345 µM (active) with DMS-273 and 0.0378 µM (active) in the assay on KM-20L2.

With `COc1ccc([I+]c2ccc(OC)cc2)cc1`, the GI50 in the assay with SR was > 50.5 µM (inactive); with 786-0 it was 50.7 µM (inactive).

As for `COC(=O)[C@@H]1c2cc3c(c(O)c2[C@@H](OC)C[C@@]1(C)O)C(=O)c1c(O)cc2c(c1C3=O)OC1O[C@@]2(C)[C@H](O)[C@@H](N(C)C)[C@@H]1O`, the GI50 with XF498 was 0.179 µM (active); in the assay with HOP-18, 0.14 µM (active); in the assay on DMS-273, 0.118 µM (active); in the assay with KM-20L2, 0.175 µM (active).

In the case of `CC1(C)N=C(N)N=C(N)N1c1ccc(Cl)cc1`, the figures for the GI50 in the assay with SR, with MDA-N and in the assay with 786-0 were 1.36 µM (inactive), 1.51 µM (inactive) and 0.598 µM (active), respectively.

For the compound `Cn1c2ccccc2c(=O)c2c(O)cc3c(c21)C=CC(C)(C)O3` [NORACRONYCINE], the GI50 was > 25 µM (inactive) with XF498, 13.7 µM (inactive) with HOP-18, > 25 µM (inactive) with DMS-273 and > 10.2 µM (inactive) in the assay on KM-20L2.

Take `O=C(O)CCCCCCCCC(=O)O` [SEBACIC ACID]: the GI50 with XF498 was 3.62 µM (inactive); with HOP-18, 387 µM (inactive); in the assay on DMS-273, 50 µM (inactive); in the assay on KM-20L2 it was > 50 µM (inactive).
